Experimental data reported in patent US9969679B2, “Anti-proliferative compounds and uses thereof” (Dana-Farber Cancer Institute, Inc., priority 2012, dated 2018).

Experiments:
[1] = test system: T cells cocultured with MDSCs from peripheral blood of MM patients; experiment: MDSC-mediated T cell suppression, 3H-Thymidin incorporation assay; type: cell-based, human; settings: 1 μM, 5 days coculture, T:MDSCs 4:1, antiCD3/CD28 Abs and rhIL-2
Method: CD11b^+CD14^−HLA-DR^−/lowCD33^+ MDSCs and CD3T cells were isolated from peripheral blood of MM patients. The cells were stimulated with antiCD3/CD28 Abs and 2 ng/ml rhIL-2 and cocultured (ratio of T:MDSCs was 4:1) for 5 days in the absence or presence (1 μM) of compound III-D. The cell proliferation was measured by ^3H-Thymidin incorporation assay.

[2] = test system: MCF7 human breast cancer cell lines; experiment: MCF7 cell growth, MTT dye absorbance; type: cell-based; settings: for MCF7 cell growth: 72 hr
Method: (§1) MCF7 human breast cancer cell lines were obtained from the American Type Culture Collection (Manassas, Va.). The cells were cultured in DMEM (Mediatech Inc., Manassas, Va.) or RPMI1640 (Mediatech Inc., Manassas, Va.) supplemented with FBS (10%), penicillin, streptomycin, and glutamine (Invitrogen, Auckland, New Zealand). […] The MCF7 cells were harvested using 0.05% trypsin-EDTA (Invitrogen) and distributed into 96-well plates (10,000-20,000 cells/well) 24 hr prior to the treatment. All experiments were performed three times in quadruplicate.

pY705 STAT3 = experiment: Intracellular flow cytometry of STAT3 phosphorylation in MDSCs; type: cell-based, human; settings: 1 μM overnight, MM-PBMC, PHA 2 ng/ml 10 min
Method: (§2) STAT-mediated signaling plays an important role in MDSC activation and function.
(§3) MM-PBMCs were cultured overnight with (1 μM) or without compound III-D. Cells were induced with phytohemagglutinin (PHA, 2 ng/ml) for 10 min. Intracellular expression of pY701 STAT1, pY705 STAT3, pY694 STAT5, STAT1, STAT3, and STAT5 in MDSCs (CD11b^+CD14^−HLA-DR^−/lowCD33^+CD15^+), was determined by flow cytometry analysis.

[3] = test system: CD11b+CD14−HLA-DR−/lowCD33+CD15+ MDSCs in MM-PBMC; experiment: MDSC number and maturation in MM-PBMC, flow cytometry; type: cell-based, human; settings: 1 μM, cultured overnight; for number of CD11b+CD14−HLA-DR−/lowCD33+CD15+ MDSCs in MM-PBMC: vs untreated MM-PBMC
Method: In order to determine whether myeloid derived suppressor cells (MDSCs) are present in subjects with multiple myeloma (MM), fresh or cultured peripheral blood mononuclear cells (PBMCs) and bone marrow mononuclear cells (BMMCs) from human subjects with MM have been analyzed using standard cell-surface multicolor flow cytometry staining methods (see, e.g., Herzenberg et al., Clin. Chem. (2002) 48:1819-27; and Perez et al., Nat. Biotechnol. (2002) 20:155-62).
MM-PBMCs were cultured overnight with (1 μM) or without compound III-D. MDSCs (CD11b^+CD14^−HLA-DR^−/lowCD33^+CD15^+) were determined by flow cytometry analysis. Gates 110 and 130 indicate the MDSC population. Compound III-D induces maturation of MDSCs (CD11b^+CD14^−HLA-DR^−/lowCD33^+CD15^+) into CD14^+ and/or CD14^−[…] (FIG. 3G) in MM peripheral blood compared to untreated MM-PBMC (FIG. 3C). MM-PBMCs were cultured overnight with (1 μM) or without compound III-D. CD14 and/or HLA-DR expressing MDSCs (CD11b^+CD14^−HLA-DR^−/lowCD33^+CD15^+) were determined by flow cytometry analysis. Gates 100 and 120 indicate CD14^+ mature MDSC population. Gating strategy of MDSCs has been indicated as CD11b^+ cells (FIGS. 3A-3B and 3E-3F), CD11b^+CD14^−HLA-DR^−/lowCD14^− cells (FIGS. 3C and 3G) and MDSCs with a phenotype of CD11b^+/HLA-DR^−/lowCD14^−/CD33^+CD15^+ cells (FIGS. 3D and 3H).

pY694 STAT5 = experiment: Intracellular flow cytometry of STAT5 phosphorylation in MDSCs; type: cell-based, human; settings: 1 μM overnight, MM-PBMC, PHA 2 ng/ml 10 min
Method: as §2, §3

pY701 STAT1 = experiment: Intracellular flow cytometry of STAT1 phosphorylation in MDSCs; type: cell-based, human; settings: 1 μM overnight, MM-PBMC, PHA 2 ng/ml 10 min
Method: as §2, §3

MCF7 cells = experiment: Bortezomib and III-D combination cytotoxicity in MCF7 cells, MTT, isobologram analysis; type: cell-based, human; settings: 48 hr; for Combination indicia (CI): MCF7 cells
Method: as §1
MCF7 cells were obtained, cultured (in the presence of bortezomib (0, 10, 20, or 40 nM) and III-D (0, 0.3, 1, or 3 μM), for 48 hr), and assayed using methods similar to the ones described in Example 6. The statistical significance of the differences observed between the control cultures and the cultures treated with bortezomib and compound III-D was determined using the Wilcoxon signed-ranks test. The minimal level of significance was p<0.05. The interaction between compound III-D and bortezomib was analyzed by isobologram analysis using the CalcuSyn software program (Biosoft, Ferguson, Mo.) to determine whether the combination was additive or synergistic. A combination index (CI)<1.0 indicates a synergistic cell growth inhibitory effect.

[4] = test system: LnCaP human prostate cancer cells; experiment: LnCaP cell growth, MTT dye absorbance; type: cell-based; settings: 72 hr
Method: [The procedure below names another cell line; the source lists this cell line under the same test.] as §1

[5] = test system: T47D human breast cancer cells; experiment: T47D cell growth, MTT dye absorbance; type: cell-based; settings: for T47D cell growth: 72 hr
Method: as §1
T47D human breast cancer cells were obtained, cultured (in the presence of compounds III-A, III-B, III-C, or III-E), and assayed in a similar manner as in Example 6.

EGFR = experiment: Immunoblot of whole cell lysates for EGFR; type: cell-based, human; settings: for EGFR expression, dose-dependent: 24 hr
Method: (§4) MCF7 cells were obtained and cultured (in the presence of compound III-B for 48 hr) in a similar manner as in Example 6. The cultured MCF7 cells were harvested, washed, and lysed using a lysis buffer (50 mM Tris-HCl (pH 7.4), 150 mM NaCl, 1% NP-40, 5 mM EDTA, 5 mM NaF, 1 mM Na3VO4, 1 mM PMSF, 5 μg/ml leupeptine, and 5 μg/ml aprotinin). […] The antibodies used were polyclonal anti-acetylated lysine (Ac—K; Cell Signaling Technology, Danvers, Mass.) and antibodies directed against EGFR, HER2, ER, and acetylated-α-tubulin (Ac-α-tubulin). […] In contrast, the expression of Ac—K in MCF7 cells was not affected by compound III-B (FIG. 12B).
(§5) MCF7 and T47D cells were obtained and cultured (in the presence of compound III-D (0, 0.5, 1, or 2 μM), for 24 hr), using methods similar to the ones described in Example 6. The whole cell lysates were immunoblotted with antibodies against EGFR, HER2, ER, and α-tubulin using methods similar to the ones described in Example 12. […] In contrast, the expression of α-tubulin in MCF7 or T47D cells was not affected by compound III-D (FIG. 13B).
(§6) MCF7 cells were obtained and cultured (in the presence of 2 μM of compound III-D, for 0, 12, 24, or 48 hr) using methods similar to the ones described in Example 6. The whole cell lysates were immunoblotted with antibodies against EGFR, HER2, ER, and α-tubulin using methods similar to the ones described in Example 12. […] In contrast, the expression of α-tubulin in MCF7 cells was not affected by compound III-D.

ER = experiment: Immunoblot of whole cell lysates for ER; type: cell-based, human; settings: for ER expression, dose-dependent: 24 hr
Method: as §4, §5, §6

HER2 = experiment: Immunoblot of whole cell lysates for HER2; type: cell-based, human; settings: for HER2 expression, dose-dependent: 24 hr
Method: as §4, §5, §6

α-tubulin = experiment: Immunoblot of whole cell lysates for α-tubulin; type: cell-based, human
Method: as §4, §5, §6

acetylated lysine (Ac—K) = experiment: Immunoblot for acetylated lysine (histone acetylation); type: cell-based, human; settings: MCF7 cells, 48 hr
Method: as §4

[6] = MCF7 cells, 2 μM, 0, 12, 24, or 48 hr

O=C1CN(/N=C/c2ccc(N(c3ccccc3)c3ccccc3)cc2)C(=O)N1 [Compound III-F]
MDSC-mediated T cell suppression (T cell proliferation) [1]: reverses | MCF7 cell growth [2]: inhibit | phosphorylation of STAT3 (pY705) in MDSCs (pY705 STAT3): decreases | number of CD11b+CD14−HLA-DR−/lowCD33+CD15+ MDSCs in MM-PBMC [3]: decreased | phosphorylation of STAT5 (pY694) in MDSCs (pY694 STAT5): decreases | phosphorylation of STAT1 (pY701) in MDSCs (pY701 STAT1): decreases

CC(C)C[C@H](NC(=O)[C@H](Cc1ccccc1)NC(=O)c1cnccn1)B(O)O [bortezomib, reference compound]
response of MCF7 cells to bortezomib as single agent (MCF7 cells; bortezomib 0, 10, 20, or 40 nM): resistant

O=Cc1ccc(N(c2ccccc2)c2ccccc2)cc1 [III-A]
LnCaP cell growth [4]: inhibit | MCF7 cell growth [2]: inhibit | T47D cell growth [5]: inhibit

CC(=O)NN=Cc1ccc(N(C)C)cc1 [Compound IV-D]
MCF7 cell growth [2]: does not

O=C(N/N=C/c1ccc(N(c2ccccc2)c2ccccc2)cc1)c1ccccc1 [Compound III-C]
LnCaP cell growth [4]: inhibit | MCF7 cell growth [2]: inhibit | T47D cell growth [5]: inhibit

O=C(NN=Cc1ccccc1)c1ccccc1 [Compound IV-B]
MCF7 cell growth [2]: do not

O/N=C/c1ccc(N(c2ccccc2)c2ccccc2)cc1 [Compound III-E]
LnCaP cell growth [4]: inhibit | MCF7 cell growth [2]: inhibit | T47D cell growth [5]: inhibit

CN1CCC(C(=O)N/N=C/c2ccc(N(c3ccccc3)c3ccccc3)cc2)CC1 [Compound III-D]
MDSC-mediated T cell suppression (T cell proliferation) [1]: Reversed | Combination indicia (CI) (MCF7 cells; III-D 0.3 μM + bortezomib 10 nM): 1.58 | Combination indicia (CI) (MCF7 cells; III-D 0.3 μM + bortezomib 20 nM): 1.29 | Combination indicia (CI) (MCF7 cells; III-D 0.3 μM + bortezomib 40 nM): 0.83 | Combination indicia (CI) (MCF7 cells; III-D 1 μM + bortezomib 10 nM): 0.66 | Combination indicia (CI) (MCF7 cells; III-D 1 μM + bortezomib 20 nM): 0.53 | Combination indicia (CI) (MCF7 cells; III-D 1 μM + bortezomib 40 nM): 0.53 | Combination indicia (CI) (MCF7 cells; III-D 3 μM + bortezomib 10 nM): 1.22 | Combination indicia (CI) (MCF7 cells; III-D 3 μM + bortezomib 20 nM): 1.03 | Combination indicia (CI) (MCF7 cells; III-D 3 μM + bortezomib 40 nM): 0.98 | enhancement of bortezomib-induced MCF7 cytotoxicity (interaction) (MCF7 cells; combination with bortezomib, at least at certain concentrations, CI<1 = synergistic): synergistically | EGFR expression, dose-dependent (EGFR; MCF7 cells, 0, 0.5, 1, or 2 μM): down-regulates | EGFR expression, time-dependent (EGFR; [6]): down-regulates | EGFR expression, dose-dependent (EGFR; T47D cells, 0, 0.5, 1, or 2 μM): down-regulates | ER expression, dose-dependent (ER; MCF7 cells, 0, 0.5, 1, or 2 μM): down-regulates | ER expression, time-dependent (ER; [6]): down-regulates | ER expression, dose-dependent (ER; T47D cells, 0, 0.5, 1, or 2 μM): down-regulates | HER2 expression, dose-dependent (HER2; MCF7 cells, 0, 0.5, 1, or 2 μM): down-regulates | HER2 expression, time-dependent (HER2; [6]): down-regulates | HER2 expression, dose-dependent (HER2; T47D cells, 0, 0.5, 1, or 2 μM): down-regulates | MCF7 cell growth [2]: inhibit | potency in inhibiting MCF7 cells compared with tamoxifen ([2]; at least at 3-10 μM of compound and tamoxifen): more potent than tamoxifen | expression of α-tubulin (α-tubulin; MCF7 cells, 0, 0.5, 1, or 2 μM, 24 hr): not affected | expression of α-tubulin (α-tubulin; [6]): not affected | expression of α-tubulin (α-tubulin; T47D cells, 0, 0.5, 1, or 2 μM, 24 hr): not affected | potency in inhibiting T47D cells compared with tamoxifen [5]: more potent than tamoxifen | phosphorylation of STAT3 (pY705) in MDSCs (pY705 STAT3): significantly reduced | maturation of MDSCs into CD14+ monocytes and/or CD14+HLA-DR+ antigen presenting cells ([3]; MM-PBMC): induced maturation | number of CD11b+CD14−HLA-DR−/lowCD33+CD15+ MDSCs in MM-PBMC [3]: significant decrease | phosphorylation of STAT5 (pY694) in MDSCs (pY694 STAT5): significantly reduced | phosphorylation of STAT1 (pY701) in MDSCs (pY701 STAT1): significantly reduced

CC(=O)NN=Cc1ccccc1 [Compound IV-C]
MCF7 cell growth [2]: do not

CC(=O)N/N=C/c1ccc(N(c2ccccc2)c2ccccc2)cc1 [Compound III-B]
EGFR expression (EGFR; MCF7 cells, 48 hr): down-regulates | LnCaP cell growth [4]: inhibit | ER expression (ER; MCF7 cells, 48 hr): down-regulates | HER2 expression (HER2; MCF7 cells, 48 hr): down-regulates | MCF7 cell growth [2]: inhibit | expression of Ac—K (acetylated lysine (Ac—K)): not affected | T47D cell growth [5]: inhibit
